Read-outs that look alike come from different tables or passages of the source.
Columns and labels:
5-HT1A receptor = biological target: T1, 5-HT1A receptor (Sus scrofa, UniProt A0A4X1UTF5); experiment: Affinity for serotonin 1A receptor: inhibition of [3H]MPPF binding in swine hippocampal membrane fraction; details: for IC50: [3H]MPPF 0.5 nM, swine hippocampal membrane, 37°C 30 min; for L/H ratio: low affinity IC50 divided by high affinity IC50, 1 or smaller = no intrinsic activity, 2 or greater = intrinsic activity
T1 construct: Swine hippocampus was homogenized in a 50 mM Tris-Hcl buffer; from tissue; host or cells: swine hippocampus, membrane fraction
T1 sequence (A0A4X1UTF5 1-422): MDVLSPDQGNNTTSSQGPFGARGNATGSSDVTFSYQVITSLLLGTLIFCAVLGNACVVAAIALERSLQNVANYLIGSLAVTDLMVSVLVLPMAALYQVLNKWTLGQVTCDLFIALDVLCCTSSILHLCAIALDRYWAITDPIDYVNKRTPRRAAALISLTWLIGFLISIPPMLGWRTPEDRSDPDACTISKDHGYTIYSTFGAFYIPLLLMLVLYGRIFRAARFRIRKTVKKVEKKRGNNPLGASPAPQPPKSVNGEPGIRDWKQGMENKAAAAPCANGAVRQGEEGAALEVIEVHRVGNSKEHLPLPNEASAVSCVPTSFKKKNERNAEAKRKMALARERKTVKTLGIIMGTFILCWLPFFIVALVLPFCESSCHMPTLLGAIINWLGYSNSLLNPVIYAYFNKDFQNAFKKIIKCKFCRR
From the text: (1) The affinity of a test substance for a 5-HT1A receptor was examined by an inhibition experiment, in which the inhibitory effect of the test substance against the binding of [^3H]-4-(2′-methoxy)phenyl-1-(2′-(N-2″-pyridinyl)-p-fluorobenzamido)ethyl-piperazine (MPPF) that selectively binds to the 5-HT1A receptor in a swine hippocampal membrane fraction was examined. The 5-HT1A receptor that is a G-protein binding receptor becomes a G-protein binding state with addition of MgCl2. In contrast, it becomes a G-protein non-binding state with addition of guanylylimido diphosphate (Gpp(NH)p). […] Thus, both the affinity of a test substance to the receptor that was in a state of not binding to the G-protein and the affinity of the test substance to the receptor that was in a state of binding to the G-protein were obtained. Then, the obtained values were compared to each other, so as to estimate the level of the intrinsic activity of the test substance. Theoretically, when the value (L/H) obtained by dividing the affinity of a test substance to the receptor that is in a low affinity state (IC50 value) by the affinity of a test substance to the receptor that is in a high affinity state (IC50 value) is 1 or less, the intrinsic activity thereof is zero. The greater this value, the higher the intrinsic activity that can be obtained.
Swine hippocampus was homogenized in a 50 mM Tris-Hcl buffer (pH 7.4; hereinafter referred to as buffer A) that had been cooled on ice. The suspension was centrifuged at 40,000×g for 15 minutes. The obtained pellet was suspended in buffer solution A, and the thus obtained solution was then centrifuged at 40,000×g for 15 minutes. The same operation was repeated 2 or 3 times. The finally obtained pellet was suspended in a buffer solution A in an amount 10 times the wet weight of the swine hippocampus, so as to obtain a membrane fraction. The obtained membrane fraction was stored at −80° C. until use.
A mixture (0.5 ml) used for incubation comprised an appropriate amount of the membrane fraction, a test substance with a desired concentration, MgCl2 (final concentration: 10 mM) or Gpp(NH)p (final concentration: 1 mM), [^3H]MPPF (final concentration: 0.5 nM), dimethyl sulfoxide (final concentration: 1% (v/v)), and a 50 mM Tris-Hcl buffer (pH 7.4). The reaction was initiated with addition of the membrane fraction, and the mixture was incubated at 37° C. for 30 minutes. After completion of the incubation, the mixture was subjected to vacuum filtration with a glass filter, using Cell Harvester. The filter was washed with buffer solution A that had been cooled on ice. Thereafter, radioactivity binding to the receptor was measured with a liquid scintillation counter. Non-specific binding was defined as binding detected in the presence of 10 μM WAY-100,635.

serotonin 1A receptor = biological target: T2, serotonin 1A receptor (Mus musculus, UniProt Q64264); experiment: Antagonistic effect on serotonin 1A receptor agonist (8-OH-DPAT)-induced hypothermia in mouse; format: in vivo; details: CD-1 (ICR) male mice; inhibition of hypothermia by 8-OH-DPAT 0.5 mg/kg sc; test substance 15 minutes before agonist
T2 construct: into the rectum of CD-1 (ICR) male mice (25-45 g); from tissue; host or cells: living CD-1 (ICR) male mice (in vivo)
T2 sequence (Q64264 1-421): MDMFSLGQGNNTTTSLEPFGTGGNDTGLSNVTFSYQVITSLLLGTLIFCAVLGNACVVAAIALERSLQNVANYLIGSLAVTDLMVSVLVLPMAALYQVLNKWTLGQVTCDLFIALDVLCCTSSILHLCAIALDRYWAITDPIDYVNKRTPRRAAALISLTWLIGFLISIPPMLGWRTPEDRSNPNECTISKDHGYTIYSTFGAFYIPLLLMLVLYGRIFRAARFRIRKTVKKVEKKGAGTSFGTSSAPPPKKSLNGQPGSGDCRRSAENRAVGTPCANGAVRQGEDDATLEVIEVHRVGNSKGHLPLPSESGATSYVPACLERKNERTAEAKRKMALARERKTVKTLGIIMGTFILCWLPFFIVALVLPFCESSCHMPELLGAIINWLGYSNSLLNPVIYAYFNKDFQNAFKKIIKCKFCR
Experimental: (1) A thermistor probe was inserted at a depth of approximately 2 cm into the rectum of CD-1 (ICR) male mice (25-45 g), so as to measure the body temperature thereof. Body temperature is decreased by subcutaneous administration of serotonin 1A receptor agonist (8-hydroxy-dipropylaminotetralin (8-OH-DPAT) 0;5 mg/kg. Since a serotonin 1A antagonist inhibits such action, the antagonistic effect of a test substance to a serotonin 1A receptor was evaluated using the inhibitory effect of the hypothermia as an index. The test results are shown in Table 2 indicated below. A test substance was administered 15 minutes before the administration of the serotonin 1A agonist. A serotonin 1A partial agonist alone decreases the body temperature, depending on the degree of the agonistic action thereof. In addition, it has a weak antagonistic effect on 8-OH-DPAT-induced hypothermia.

[1] = receptor in high affinity (G-protein binding, MgCl2 10 mM) state, read-out: High affinity IC50
[2] = receptor in low affinity (G-protein non-binding, Gpp(NH)p 1 mM) state, read-out: Low affinity IC50

| Compound | IC50 (5-HT1A receptor; [1]) [nM] | IC50 (5-HT1A receptor; [2]) [nM] | L/H ratio (5-HT1A receptor) | ED50 (serotonin 1A receptor) |
| --- | --- | --- | --- | --- |
| COc1ccc2c(c1CCN1CCC(n3ccc4ccc(C(N)=O)cc43)CC1)OC1(CCCC1)CC2=O [Compound 41, 1-{1-[2-(7-methoxy-4-oxo-spiro(chroman-2,1′-cyclopentan)-8-yl)ethyl]piperidin-4-yl}-1H-indole-6-carboxamide] | 0.2 | 0.14 | 0.7 | – |
| COc1ccc2cccnc2c1CCN1CCC(n2ccc3ccc(C(N)=O)cc32)CC1 [Compound 29, 1-{1-[2-(7-methoxyquinolin-8-yl)ethyl]piperidin-4-yl}-1H-indole-6-carboxamide] | 0.34 | 0.3 | 0.9 | – |
| COc1ccc2c(c1CCN1CCC(n3ccc4ccc(C(N)=O)cc43)CC1)CC(C)(C)C2=O [Compound 14, 1-{1-[2-(5-methoxy-2,2-dimethyl-1-oxoindan-4-yl)ethyl]piperidin-4-yl}-1H-indole-6-carboxamide] | 0.46 | 0.34 | 0.7 | – |
| CON=C1CCCc2c1ccc(OC)c2CCN1CCC(n2ccc3ccc(C(N)=O)cc32)CC1 [Compound 19, 1-{1-[2-(2-methoxy-5-methoxyimino-5,6,7,8-tetrahydronaphthalen-1-yl)ethyl]piperidin-4-yl}-1H-indole-6-carboxamide] | 1.1 | 0.69 | 0.6 | – |
| COc1ccc2c(c1CCN1CCC(n3ccc4ccc(C(N)=O)cc43)CC1)OCC(C)(C)C2=O [Compound 37, 1-{1-[2-(7-methoxy-3,3-dimethyl-4-oxochroman-8-yl)ethyl]piperidin-4-yl}-1H-indole-6-carboxamide] | 0.55 | 0.39 | 0.7 | – |
| COCC1(C)CC(=O)c2ccc(OC)c(CCN3CCC(n4ccc5ccc(C(N)=O)cc54)CC3)c2O1 (stereo not shown) [Compound 40, 1-{1-[2-(7-methoxy-2-methoxymethyl-2-methyl-4-oxochroman-8-yl)ethyl]piperidin-4-yl}-1-H-indole-6-carboxamide] | 0.18 | 0.17 | 0.9 | – |
| CNC(=O)c1ccc2ccn(C3CCN(CCc4c(OC)ccc5nc(C)oc45)CC3)c2c1 [Compound 15] | 0.72 | 0.61 | 0.8 | – |
| CON=C1CCCOc2cc(OC)c(CCN3CCC(n4ccc5ccc(C(N)=O)cc54)CC3)cc21 [Compound 13, 1-{1-[2-(8-methoxy-5-methoxyimino-2,3,4,5-tetrahydrobenzo[b]oxepin-7-yl)ethyl]piperidin-4-yl}-1H-indole-6-carboxamide] | 0.32 | 0.22 | 0.7 | – |

Next, values leading:

| IC50 (5-HT1A receptor; [1]) [nM] | IC50 (5-HT1A receptor; [2]) [nM] | L/H ratio (5-HT1A receptor) | ED50 (serotonin 1A receptor) | Compound |
| --- | --- | --- | --- | --- |
| 0.17 | 0.13 | 0.8 | 0.3 mg/kg, sc | COc1cc2c(cc1CCN1CCC(n3ccc4ccc(C(N)=O)cc43)CC1)C(=O)N(C)CCO2 [Compound 9, 1-{1-[2-(8-methoxy-4-methyl-5-oxo-2,3,4,5-tetrahydrobenzo[f][1,4]oxazepin-7-yl)ethyl]piperidin-4-yl}-1H-indole-6-carboxamide] |
| 0.17 | 0.16 | 0.9 | – | COc1cc2c(cc1CCN1CCC(n3ccc4ccc(C(N)=O)cc43)CC1)C(=O)CCCO2 [Compound 12, 1-{1-[2-(8-methoxy-5-oxo-2,3,4,5-tetrahydrobenzo[b]oxepin-7-yl)ethyl]piperidin-4-yl}-1H-indole-6-carboxamide] |
| 0.21 | 0.21 | 1 | – | COc1cc2c(cc1CCN1CCC(n3ccc4ccc(C(N)=O)cc43)CC1)C(O)CC2 (stereo not drawn) [Compound 50, 1-{l-[2-(3-hydroxy-6-methoxyindan-5-yl)ethyl]piperidin-4-yl}-1H-indole-6-carboxamide] |
| 0.24 | 0.33 | 1.4 | 0.3 mg/kg, sc | COc1ccc2c(c1CCN1CCC(n3ccc4ccc(C(N)=O)cc43)CC1)OCCC2O (stereo not shown) [Compound 46, 1-{1-[2-(4-hydroxy-7-methoxychroman-8-yl)ethyl]piperidin-4-yl}-1H-indole-6-carboxamide] |
| 0.22 | 0.1 | 0.4 | – | CON=C1CCc2c(CCN3CCC(n4ccc5ccc(C(N)=O)cc54)CC3)c(OC)cc(OC)c21 [Compound 11, 1-{1-[2-(5,7-dimethoxy-1-methoxyiminoindan-4-yl)ethyl]piperidin-4-yl}-1H-indole-6-carboxamide] |
| 0.13 | 0.09 | – | – | COc1cc2c(cc1CCN1CCC(n3ccc4ccc(C(N)=O)cc43)CC1)N(C)C(=O)OC2 [Compound 39, 1-{1-[2-(6-methoxy-methyl-oxo-1,4-dihydro-2H-benz[d][1,3]oxazin-7-yl)ethyl]piperidin-4-yl}-1H-indole-6-carboxamide] |
| 0.22 | 0.15 | 0.7 | – | COc1ccc2c(c1CCN1CCC(n3ccc4ccc(C(N)=O)cc43)CC1)OC1(CCOCC1)CC2=O [Compound 43, 1-{1-[2-(7-methoxy-4-oxo-spiro(chroman-2,4′-oxan)-8-yl)ethyl]piperidin-4-yl}-1H-indole-6-carboxamide] |
| 0.18 | 0.17 | 0.9 | – | CNC(=O)c1ccc2ccn(C3CCN(CCc4cc5nc(C)oc5cc4OC)CC3)c2c1 [Compound 16, 1-{1-[2-(6-methoxy-2-methylbenzoxazol-5-yl)ethyl]piperidin-4-yl}-N-methyl-1H-indole-6-carboxamide] |
| 0.07 | 0.04 | 0.5 | – | COc1cc2c(cc1CCN1CCC(n3ccc4ccc(C(N)=O)cc43)CC1)NC(=O)CC2 [Compound 56, 1-{1-[2-(6-methoxy-2-oxo-1,2,3,4-tetrahydroquinolin-7-yl)ethyl]piperidin-4-yl}-1H-indole-6-carboxamide] |

From patent publication US20050256103A1, “Indole derivative having piperidine ring” (Eisai Co., Ltd., priority 2004, published 2005)
